From patent US11919886B2, “4,9-dioxo-4,9-dihydronaphtho[2,3-B]furan-3-carboxamide derivatives and uses thereof for treating proliferative diseases and infectious diseases” (Academia Sinica, priority 2016, dated 2024)
In brackets after ≈: the same amount, converted by molar mass. Like-named read-outs stand apart in the source and are kept apart here.

Tests used:
H1975 cells [1] = experiment: Double thymidine block, S phase progression by flow cytometry; format: cell-based, human; settings: H1975, release from double thymidine block
Experimental: To evaluate the effects of compound Ion a single round of DNA replication in a cell cycle, H1975 cells were synchronized using a double thymidine block followed by release with DMSO or compound 1-containing medium for 2 to 14 hours. Exemplary results are shown in Panel (C) of FIG. 2. H1975 cells were grown to 60-70% confluence. Then, 2 mM thymidine (Sigma) was added to the cells and incubated for 17 hours. The cells were then washed, and fresh serum-containing medium was added. After 10 hours, thymidine was added again, and the cells were incubated for 17 hours; the cells were then washed with PBS, replaced with fresh serum-containing medium, and the data were collected at the indicated time points. Through flow cytometry analysis, the control cells were observed as synchronized in the G0-G1 phase from 0 hours, increased in the S phase from 4 to 6 hours, and finally progressed to the G2 phase after 8 hours. However, many of the compound 1-treated cells remained in the S phase at all time points. (Panel (C) of FIG. 2). A double thymidine block was performed and the data were collected at the indicated time points. Compared to DMSO, compound 1-treated H1975 cells required more time for the S phase (approximately 4 hours).

[2] = tested on: PC9 (human lung adenocarcinoma cells, EGFR del 19 mutation and sensitive to gefitinib); experiment: SRB cytotoxicity assay, PC9; settings: 72 h
[3] = tested on: Streptococcus gallolyticus subsp. pasteurianus; experiment: MIC, broth micro dilution method; format: cell-based; settings: strain ATCC43144, S. bovis
Escherichia coli = experiment: Bacterial growth by Alamar Blue in Muller-Hinton broth; format: cell-based; settings: 16-24 hours, read-out: % of the activities in the presence of ~10 μM compound, Escherichia coli
Experimental: (§1) Compound 1 and its analogues shown in Table 6 below were tested for their activities on cancer cells and bacterial cells using assays described herein. H1975, MDA-MB231, and MCF7 cells were incubated in the presence of the compounds in cell growth medium containing 10% fetal bovine serum for two days in a mammalian cell culture incubatoe. Cell viability were monitored by using Cell-TiterGlo. Staphylococcus aureus and Escherichia coli were incubated in the presence of the compounds in Muller-Hinton broth for 16-24 hours in a 37° C. incubator. Bacterial growth was monitored by using Alamar Blue (Invitrogen).

Staphylococcus aureus = experiment: as above; format: cell-based
Experimental: as §1

MCM complex (MCM2-MCM7) = experiment: Immunoblotting of MCM complex protein expression in H1975 cell lysates; format: cell-based, human
Experimental: To evaluate the effects of Compound 1 on modulating the expression of different MCM protein components, immunoblotting of DMSO or compound 1-treated (at 140 nM) H1975 cell lysates was performed. Exemplary results are shown in Panels (A)-(C) of FIG. 3. H1975 cell were treated with DMSO and compound 1 (140 nM). Compound 1-treated H1975 cells were harvested at 24 hours, 48 hours, and 72 hours, and the protein expression levels of MCM complex were analyzed by immunoblotting. […] (Panel (A) of FIG. 3.).
To evaluate the effects of Compound 1 on triggering MCM2, MCM6, and MCM7 degradation through transcriptional or post-translational regulation, compound 1-treated H1975 cells were harvested at 48 hours with or without 10 μM MG132 treatment for 12 hours; and the protein expression levels of MCM2/6/7 were examined by immunoblotting. […] It was observed that MG132 proteasome inhibitor may reverse the compound 1 effects on MCM2/6/7 protein expression levels.

[4] = tested on: Staphylococcus haemolyticus; experiment: MIC, broth micro dilution method; format: cell-based
[5] = tested on: Breast Cancer Cells (MCF); experiment: Cell viability by Cell-TiterGlo; format: cell-based; settings: Homo sapiens, 48 h, two days, read-out: % of the activities in the presence of ~10 μM compound, Breast Cancer Cells (MCF)
Experimental: as §1

[6] = tested on: Lung Cancer Cells (H1975); experiment: Cell viability by Cell-TiterGlo; format: cell-based; settings: Homo sapiens, NCI-H1975, 48 h, two days, read-out: % of the activities in the presence of ~10 μM compound, Lung Cancer Cells (H1975)
Experimental: as §1

[7] = tested on: Breast Cancer Cells (MDA-MB231); experiment: Cell viability by Cell-TiterGlo; format: cell-based; settings: Homo sapiens, MDA-MB-231, 48 h, two days, read-out: % of the activities in the presence of ~10 μM compound, Breast Cancer Cells (MDA-MB231)
Experimental: as §1

H1975 cells [8] = experiment: Cell cycle analysis by propidium iodide flow cytometry; settings: 72 h
[9] = tested on: Staphylococcus epidermidis; experiment: MIC, broth micro dilution method; format: cell-based
Klebsiella pneumoniae = experiment: MIC, broth micro dilution method; format: cell-based
[10] = tested on: subcutaneous H1975 tumors; experiment: H1975 xenograft tumor growth in athymic nude mice (compound 1); format: in vivo; settings: for average tumor size: day 27
Experimental: Panel (A): The structure of compound 1. Panel(B): A chart showing exemplary results for the cytotoxicity assay of Compound 1-treated cancer cells for 72 hours. […] Panel (C): Photos showing the different tumor sizes and TUNEL assay results between DMSO control and Compound 1-treated mice. H1975 (3×10^6) cells were subcutaneously injected into male nu/nu mice, and daily treated intraperitoneally with Compound I at indicated dose or DMSO for 4 weeks. During the treatment, tumor size and body weights were measured every 3 to 4 days; and the histology was confirmed by H&E staining (left lower panel of panel (C).
Exemplary results are shown in Panel (C) of FIG. 1. […] (Panel (C) of FIG. 1). In addition, the body weight of the mice was calculated when the tumor size was measured. Serum was also collected, and biological analysis in vitro was performed. […] Inhibition of tumor growth of Compound 1 with low cytotoxicity in vivo was observed.

## Cc1oc2c(c1C(=O)NCCCn1ccnc1)C(=O)c1ccccc1C2=O [Compound 1, N-(3-(1H-Imidazol-1-yl)propyl)-2-methyl-4,9-dioxo-4,9-dihydronaphtho [2,3-b]furan-3-carboxamide]
H1975 cells [1]
  more time required for the S phase compared to DMSO: approximately 4 hours
[2]
  IC50: 0.037 µM
[3]; read-out: MIC (μg/ml) 100%
  MIC: 4 µg/mL (≈ 11 µM)
[3]; read-out: MIC (μg/ml) 50%
  MIC: 2 µg/mL (≈ 5.5 µM)
Escherichia coli
  activity at 10 µM: > 100%
Staphylococcus aureus
  MIC: 2 µg/mL (≈ 5.5 µM)
Staphylococcus aureus; ~10 μM, 16-24 hours, Alamar Blue, read-out: % of the activities in the presence of ~10 μM compound, Staphylococcus aureus
  activity at 10 µM: 38.1%
MCM complex (MCM2-MCM7); H1975, 140 nM, 24, 48, 72 hours
  expression of MCM3, MCM4, or MCM5: lower only at 72 hours
MCM complex (MCM2-MCM7); H1975, 140 nM, 24 hour and 72 hour
  expression levels of MCM2, MCM6, and MCM7: significantly decreased
MCM complex (MCM2-MCM7); H1975, 24 hours
  MCM protein levels and messenger RNA levels: substantial decrease in MCM protein levels without a change in their messenger RNA levels
[4]; read-out: MIC (μg/ml) 100%, strain ATCC29970, methicillin-susceptible
  MIC: 4 µg/mL (≈ 11 µM)
[4]; strain ATCC29970, methicillin-susceptible, read-out: MIC (μg/ml) 50%
  MIC: 2 µg/mL (≈ 5.5 µM)
[5]
  viability at 10 µM: 6%
[6]
  viability at 10 µM: 4.2%
[7]
  viability at 10 µM: 13.7%
H1975 cells [8]; H1975, 35 nM
  Phase(%) G1: 70%
  Phase(%) G2/M: 23%
  Phase(%) S: 4%
  Phase(%) subG1: 1%
H1975 cells [8]; H1975, 70 nM
  Phase(%) G1: 58%
  Phase(%) G2/M: 31%
  Phase(%) S: 7%
  Phase(%) subG1: 1%
H1975 cells [8]; H1975, 140 nM
  Phase(%) G1: 39%
  Phase(%) G2/M: 38%
  Phase(%) S: 18%
  Phase(%) subG1: 4%
[9]; read-out: MIC (μg/ml) 100%, strain ATCC12228, methicillin-susceptible
  MIC: 2 µg/mL (≈ 5.5 µM)
[9]; read-out: MIC (μg/ml) 100%, strain ATCC35984, methicillin-resistant
  MIC: 1 µg/mL (≈ 2.75 µM)
[9]; strain ATCC12228, methicillin-susceptible, read-out: MIC (μg/ml) 50%
  MIC: 0.5 µg/mL (≈ 1.38 µM)
[9]; strain ATCC35984, methicillin-resistant, read-out: MIC (μg/ml) 50%
  MIC: 0.25 µg/mL (≈ 0.688 µM)
Klebsiella pneumoniae; read-out: MIC (μg/ml) 100%, strain ATCC700603, gram negative
  MIC: > 32 µg/mL
Klebsiella pneumoniae; strain ATCC700603, gram negative, read-out: MIC (μg/ml) 50%
  MIC: > 32 µg/mL
[10]; 1 mg/kg daily intraperitoneal
  average tumor size: 701.2±196.5 mm^3
[10]; 1 mg/kg or 4 mg/kg daily intraperitoneal, 4 weeks
  body weight and serum biological analysis, control group vs compound treatment group: Few differences
[10]; 4 mg/kg daily intraperitoneal
  average tumor size: 518.0±93.0 mm^3
